Reference: PubChem BioAssay (NCI)
Where “and” joins values, the source holds several entries; their conditions need not be identical. Identical values can stand only once.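 Assay format: 96-well plates, 48-hour exposure. Here, GI50 denotes the concentration required for 50% inhibition of growth. TGI: total growth inhibition.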

Experiments:
Experiment in all cases: inhibition of tumour cell growth, NCI panel, 48 h
MOLT-4 leukemia = test system: MOLT-4 leukemia
CAKI-1 renal = test system: CAKI-1 renal
UO-31 renal = test system: UO-31 renal
RPMI-8226 leukemia = test system: RPMI-8226 leukemia
SF-268 CNS = test system: SF-268 CNS
786-0 renal = test system: 786-0 renal
EKVX NSCLC = test system: EKVX NSCLC
HOP-92 NSCLC = test system: HOP-92 NSCLC
K-562 leukemia = test system: K-562 leukemia
PC-3 prostate = test system: PC-3 prostate
MDA-N = test system: MDA-N

Compound | TGI (MOLT-4 leukemia) [µM] | TGI (CAKI-1 renal) [µM] | TGI (UO-31 renal) [µM] | TGI (RPMI-8226 leukemia) [µM] | TGI (SF-268 CNS) [µM] | TGI (786-0 renal) [µM] | TGI (EKVX NSCLC) [µM] | TGI (HOP-92 NSCLC) | TGI (K-562 leukemia) [µM] | TGI (PC-3 prostate) [µM] | TGI (MDA-N) [µM] | GI50 (UO-31 renal) [nM] | GI50 (RPMI-8226 leukemia) [nM] | GI50 (PC-3 prostate) [µM] | GI50 (SF-268 CNS) [µM] | GI50 (EKVX NSCLC) [nM] | GI50 (HOP-92 NSCLC) [nM] | GI50 (K-562 leukemia) [nM]
COC(=O)C(C#N)=C1c2ccccc2Oc2ccccc21 | > 100 | > 100 | > 100 | 49.3 | > 100 | > 100 | > 100 | 87.6 µM | > 100 | – | – | – | – | – | – | – | – | –
CC1C(c2cc(C(C)(C)C)c(O)c(C(C)(C)C)c2)c2cc3c(cc2OC1N1CCOCC1)OCO3 (configuration not stated) | > 100 | – | 29.8 | > 100 | 77.3 | 27.1 | > 100 | – | > 100 | 31.6 | > 100 | – | – | – | – | – | – | –
CCCCCCCCCC[C@@H](O)[C@H]1CC[C@H]([C@H]2CC[C@H]([C@H](O)CCCCCCCCCC[C@@H]3CC(CC(C)=O)C(=O)O3)O2)O1 (some centres not stated) | > 50 | > 50 | > 50 | > 50 | > 50 | > 50 | > 50 | 8.42 µM and > 50 µM | > 50 | > 50 | – | 1660 | 1390 | 5.3 | 4.95 | 1570 | 2410 | 884
CCOP(=O)(OCC)[C@H](O)c1ccsc1 | > 100 | > 100 | > 100 | > 100 | > 100 | > 100 | > 100 | – | > 100 | > 100 | > 100 | – | – | – | – | – | – | –
CC(C)C(Sc1nc(-c2ccccc2)c(-c2ccccc2)[nH]1)C(=O)NNC(=S)Nc1ccccc1 (configuration not stated) | 33 | – | 35.8 | 39.6 | 46.5 | 35.8 | 61.4 | 34.3 µM | – | – | – | – | – | – | – | – | – | –
COc1ccc2nc(-c3ccc(OCc4ccccc4)cc3)ccc2c1 | > 100 | – | > 100 | > 100 | > 100 | > 100 | > 100 | > 100 µM | > 100 | – | – | – | – | – | – | – | – | –
Cc1cc2c(cc1C)[n+](=O)c(C(=O)C/C(=N/NC(=O)c1ccccc1O)C(=O)Nc1ccccc1C(C)C)c(C)n2[O-] | 77.1 | > 100 | – | – | > 100 | > 100 | > 100 | – | > 100 | – | – | – | – | – | – | – | – | –
COc1cc2c(cc1OCCCCCOc1cc3c(cc1OC)C(=O)N1CCC[C@H]1C(=O)N3)N=C[C@@H]1CCCN1C2=O | – | 4.25 | – | 0.179 | 10.4 | 4.71 | 9.54 | 0.0973 µM | – | – | – | – | – | – | – | – | – | –
C=CCN(CC=C)Cn1c(=S)sc2ccccc21 | > 100 | 30.7 | > 100 | – | > 100 | > 100 | > 100 | > 100 µM | – | > 100 | > 100 | – | – | – | – | – | – | –
CC(=O)NC1C(OCc2ccccc2)OC(CO)C(O)C1OCC(=O)N[C@@H](C)C(=O)N[C@H](CCC(=O)NCCNCCNc1c2ccccc2nc2cccc([N+](=O)[O-])c12)C(N)=O (some centres not stated) | – | 69 | > 100 | 73.3 | – | 99.4 | 91.1 | 66.5 µM | > 100 | 73 | > 100 | – | – | – | – | – | – | –
O=C1O[C@@H](c2ccccc2)C[C@@H]1CN1CCOCC1 | > 100 | > 100 | > 100 | > 100 | > 100 | > 100 | > 100 | > 100 µM | > 100 | – | – | – | – | – | – | – | – | –
O=c1oc2ccccc2c(O)c1C(c1cc(OCc2ccccc2)cc(OCc2ccccc2)c1)c1c(O)c2ccccc2oc1=O | 19.8 | 22.1 | 19.9 | 6.08 | 33.3 | 31.7 | 41.8 | > 28.3 µM | > 25.4 | 21.1 | – | – | – | – | – | – | – | –
CCOC(=O)C(OCC1CC=CCC1)Sc1ccccc1 (configuration not stated) | – | > 100 | > 100 | > 100 | > 100 | > 100 | > 100 | > 100 µM | > 100 | – | – | – | – | – | – | – | – | –
C=CC1=CSNN1 | > 100 | > 100 | > 100 | > 100 | > 100 | > 100 | > 100 | > 100 µM | > 100 | – | – | – | – | – | – | – | – | –
O=C(Cc1nc2ccc(C(=O)c3ccccc3)cc2[nH]c1=O)C(=O)Nc1ccc(Br)cc1 | – | > 100 | > 100 | > 100 | > 100 | > 100 | > 100 | > 100 µM | > 100 | > 100 | > 100 | – | – | – | – | – | – | –
O=C1CCCN(c2ccccc2)N1 | > 100 | > 100 | > 100 | > 100 | > 100 | > 100 | > 100 | – | > 100 | – | – | – | – | – | – | – | – | –
COc1ccc(C2C(Cl)C(=O)N2NC(=O)c2ccc(NC(C)=O)cc2)cc1 (configuration not stated) | > 100 | > 100 | > 100 | – | > 100 | > 100 | > 100 | > 100 µM | > 100 | – | – | – | – | – | – | – | – | –
c1ccc([P+](CCNCCNCC[P+](c2ccccc2)(c2ccccc2)c2ccccc2)(c2ccccc2)c2ccccc2)cc1 | > 100 | – | > 100 | > 100 | > 100 | > 100 | > 100 | – | – | – | > 100 | – | – | – | – | – | – | –
N#CCCN(c1ccc(C=Nc2cccc([N+](=O)[O-])c2)cc1)S(=O)(=O)c1ccccc1 | > 100 | > 100 | > 100 | > 100 | > 100 | > 100 | > 100 | > 100 µM | > 100 | – | – | – | – | – | – | – | – | –
COC(=O)C(=O)CC(=O)CCn1ncc(Cl)c(Cl)c1=O | 22.1 | 9.42 | 34.7 | 52.6 | 21.4 | 43.6 | 33.8 | 28.2 µM | 9.54 | 37.2 | – | – | – | 14.5 | – | – | – | –
Cc1ccccc1C(C#N)C(=O)C(=O)Nc1nc([N+](=O)[O-])cs1 (configuration not stated) | – | > 100 | > 100 | – | > 100 | > 100 | > 100 | – | – | – | – | – | – | – | – | – | – | –
Cc1ccccc1C1OC1C(=O)c1ccccc1N (configuration not stated) | > 100 | > 100 | > 100 | > 100 | > 100 | > 100 | – | > 100 µM | > 100 | > 100 | 36.3 | – | – | – | – | – | – | –
CCOc1ccc(NC(=O)CC2Sc3ccccc3NC2=O)cc1 (configuration not stated) | > 100 | > 100 | > 100 | > 100 | > 100 | 39.3 | > 100 | – | > 100 | – | – | – | – | – | – | – | – | –
